Test results taken from PMC10439028, “SGLT5 is the renal transporter for 1,5-anhydroglucitol, a major player in two rare forms of neutropenia” (Cellular and Molecular Life Sciences: CMLS, 2023).
Entries after “also recorded” stand apart in the source; their conditions may differ.

Target: T1, human SGLT4 (Homo sapiens, UniProt Q2M3M2)
T1 construct: expressed in transfected cells
T1 sequence (Q2M3M2 1-681): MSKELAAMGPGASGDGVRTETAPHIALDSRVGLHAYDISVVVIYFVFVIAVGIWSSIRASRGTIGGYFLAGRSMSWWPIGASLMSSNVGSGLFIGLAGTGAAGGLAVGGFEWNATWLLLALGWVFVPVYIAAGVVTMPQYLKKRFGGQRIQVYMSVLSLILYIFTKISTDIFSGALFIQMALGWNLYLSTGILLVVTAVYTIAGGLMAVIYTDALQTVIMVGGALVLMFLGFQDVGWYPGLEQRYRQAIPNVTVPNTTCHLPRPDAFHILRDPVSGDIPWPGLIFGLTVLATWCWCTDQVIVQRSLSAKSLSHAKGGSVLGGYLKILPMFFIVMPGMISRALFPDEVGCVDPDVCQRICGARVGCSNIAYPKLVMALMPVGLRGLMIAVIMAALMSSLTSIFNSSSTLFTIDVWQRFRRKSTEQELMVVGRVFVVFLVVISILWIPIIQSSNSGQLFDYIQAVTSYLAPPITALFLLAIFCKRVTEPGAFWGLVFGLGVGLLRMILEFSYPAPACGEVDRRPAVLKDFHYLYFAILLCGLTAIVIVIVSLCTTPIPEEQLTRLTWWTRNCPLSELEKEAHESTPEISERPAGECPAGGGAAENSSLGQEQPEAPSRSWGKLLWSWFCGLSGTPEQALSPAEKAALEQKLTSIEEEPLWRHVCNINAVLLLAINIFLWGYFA
Assay: Radioactive uptake assay (saturation kinetics) in HEK293T cells stably overexpressing human SGLT4
Type: cell-based
Source text: This assay was used to study (1) the transport of 1,5-AG or mannose by the HEK293T model cell lines that stably overexpressed the various transporters or by the transiently transfected HEK293T cells using JetPEI® as a transfection agent prepared as described above and (2) the substrate specificity of each transporter.
For a typical transporter experiment we proceeded as follows. […] To minimize cell loss during the various washing steps in the radioactive uptake experiments, the wells where the cells were seeded were previously coated with poly- D-lysine, which improved their adhesion to the plastic surface of the wells. For this, each well of the 24-well plates was treated with 200 µl of a 0.01% poly-L-lysine solution for 10 min, washed 3 times with 1 ml of sterilized water and left to dry for 2 h. Only then could the 24-well plates be seeded with the appropriate cell lines and cultured overnight at 37 °C in 5% CO2.
On day two, the radioactive uptake assay could be performed. The cell culture media was removed by aspiration and cells were incubated for 20 min at 37 °C and 5% CO2 with a basal medium (10 mM HEPES, pH 7.4, 1 mM CaCl2, 1 mM MgCl2, 2 mM KCl) containing 140 mM choline chloride to deplete intracellular […] ions. This was subsequently replaced with the uptake medium (basal medium + 140 mM NaCl, 25 μM cytochalasin B, 1 mg/ml BSA) containing either radioactive U-[^14C]-mannose (15,000 cpm/well) or 2-[^3H]-1,5-AG (30,000 cpm/well) and respectively, non-radioactive mannose or 1,5-AG, at the required concentration in the experiment. […]
Once the uptake medium was added to the cells, the plates were incubated at 37 °C in 5% CO2 during the required time. […] In each experiment, the transport activities were calculated after subtracting a “blank” value, corresponding to the radioactivity in the appropriate control cells (HEK293T cells that were stably or transiently transfected with one of the parent plasmids pEF6/MycHisA, pEF6HisB, pUB82 or pUB83 with no inserted cDNA) that were analyzed in parallel.

Structure (SMILES) | transport of 1,5-AG by human SGLT4 (concentrations in the physiological range) | SGLT4 better than SGLT5 to transport mannose (assuming similar expression of the transporters in the cell lines) | hSGLT4 Vmax (transport of the labelled substrate, Fig. 2B) [pmol/min/10^5 cells]
OC[C@H]1OC[C@H](O)[C@@H](O)[C@@H]1O [1,5-AG, 1,5-anhydroglucitol] | does not transport; also recorded: undetectable | – | –
OC[C@H]1OC(O)[C@@H](O)[C@@H](O)[C@@H]1O (stereo partly drawn) [Mannose, mannose] | – | approximately tenfold better | 16.6 ± 0.5
